This passage reports IC50 results from ChEMBL document CHEMBL1148763 (J Med Chem, 2007).

This test has as its target T1, Dihydrofolate reductase (Bacillus anthracis, UniProt Q81R22).
T1 sequence (Q81R22 whole entry): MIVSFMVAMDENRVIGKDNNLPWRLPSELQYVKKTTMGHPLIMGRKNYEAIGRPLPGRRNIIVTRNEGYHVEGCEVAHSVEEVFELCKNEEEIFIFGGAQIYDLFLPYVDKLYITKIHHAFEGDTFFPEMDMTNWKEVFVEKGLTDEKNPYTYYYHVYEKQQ
In words: Inhibition of Bacillus anthracis DHFR.

In general, IC50 refers to the point on the concentration scale where inhibition reaches its midpoint. Low readings indicate greater potency in that assay, high ones weaker potency in that assay. On to `CN(c1ccc(C(=O)NC(CCC(=O)O)C(=O)O)cc1)c1cnc2nc(N)nc(N)c2n1` (stereo unspecified), for which the IC50 amounted to 15 nM.
